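Briefly, cells in 96-well plates were exposed to five compound concentrations for 48 h, and endpoints were estimated by linear interpolation. GI50 marks 50% less growth.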 Calls of active or inactive are those of the source. Rule as the data show it: active = GI50 up to about 1.1 µM and inactive = higher.
Experiments:
Experiment in all cases: NCI tumour cell line growth inhibition, 48 h
CCRF-CEM = test system: CCRF-CEM
SK-MEL-5 = test system: SK-MEL-5
SF-268 = test system: SF-268
OVCAR-5 = test system: OVCAR-5
SK-MEL-28 = test system: SK-MEL-28
786-0 = test system: 786-0
KM12 = test system: KM12
DU-145 = test system: DU-145
SF-295 = test system: SF-295
SR = test system: SR
HCT-15 = test system: HCT-15
UO-31 = test system: UO-31
U-251 = test system: U-251
CAKI-1 = test system: CAKI-1
ACHN = test system: ACHN
EKVX = test system: EKVX
A549 = test system: A549
SK-OV-3 = test system: SK-OV-3
HT-29 = test system: HT-29
UACC-62 = test system: UACC-62
A498 = test system: A498
SNB-19 = test system: SNB-19
BT-549 = test system: BT-549
MDA-N = test system: MDA-N
UACC-257 = test system: UACC-257
HOP-62 = test system: HOP-62
OVCAR-4 = test system: OVCAR-4
SF-539 = test system: SF-539
IGROV-1 = test system: IGROV-1
RPMI-8226 = test system: RPMI-8226
COLO 205 = test system: COLO 205
Hs-578T = test system: Hs-578T
M14 = test system: M14
NCI-H23 = test system: NCI-H23
MOLT-4 = test system: MOLT-4
Malme-3M = test system: Malme-3M
NCI-H522 = test system: NCI-H522
PC-3 = test system: PC-3
NCI-H226 = test system: NCI-H226
TK-10 = test system: TK-10
HCT-116 = test system: HCT-116
HOP-92 = test system: HOP-92
RXF 393 = test system: RXF 393
MDA-MB-435 = test system: MDA-MB-435
K562 = test system: K562
NCI/ADR-RES = test system: NCI/ADR-RES
OVCAR-3 = test system: OVCAR-3
NCI-H460 = test system: NCI-H460
SN12C = test system: SN12C
HCC 2998 = test system: HCC 2998
MCF7 = test system: MCF7
HL-60 = test system: HL-60
T47D = test system: T47D
SK-MEL-2 = test system: SK-MEL-2
OVCAR-8 = test system: OVCAR-8
MDA-MB-231 = test system: MDA-MB-231
SW-620 = test system: SW-620
LOX IMVI = test system: LOX IMVI
SNB-75 = test system: SNB-75

For `Nc1c(-c2nc3ccccc3o2)sc(=S)n1-c1ccc(Cl)cc1`, the GI50 (CCRF-CEM) was > 100 µM (inactive), the GI50 (SK-MEL-5) was 17.2 µM (inactive) and the GI50 (SF-268) was 12.9 µM (inactive). The GI50 (OVCAR-5) was 46.1 µM (inactive), the GI50 (SK-MEL-28) was 13.9 µM (inactive) and the GI50 (786-0) was 8.57 µM (inactive). For the same compound, the GI50 (KM12) was 22.4 µM (inactive), the GI50 (DU-145) was 12 µM (inactive) and the GI50 (SF-295) was 10.6 µM (inactive). For the same compound, the GI50 (SR) was 51.5 µM (inactive), the GI50 (HCT-15) was 26.1 µM and the GI50 (UO-31) was 29.4 µM (inactive). For the same compound, the GI50 (U-251) was 15.6 µM (inactive), the GI50 (CAKI-1) was 12.6 µM (inactive) and the GI50 (ACHN) was 9.1 µM (inactive). For the same compound, the GI50 (EKVX) was 12.6 µM (inactive), the GI50 (A549) was 13.2 µM (inactive) and the GI50 (SK-OV-3) was 15.5 µM (inactive). For the same compound, the GI50 (HT-29) was 37.4 µM (inactive), the GI50 (UACC-62) was 0.452 µM (active) and the GI50 (A498) was 37.7 µM (inactive). For the same compound, the GI50 (SNB-19) was 13.7 µM (inactive), the GI50 (BT-549) was 31 µM (inactive) and the GI50 (MDA-N) was 21.4 µM (inactive). For the same compound, the GI50 (UACC-257) was 18 µM (inactive), the GI50 (HOP-62) was 5.11 µM (inactive) and the GI50 (OVCAR-4) was 11 µM (inactive). For the same compound, the GI50 (SF-539) was 11.6 µM (inactive), the GI50 (IGROV-1) was 17.7 µM (inactive) and the GI50 (RPMI-8226) was 82.6 µM (inactive). For the same compound, the GI50 (COLO 205) was 17.1 µM (inactive), the GI50 (Hs-578T) was 12.8 µM (inactive) and the GI50 (M14) was 15.4 µM (inactive). The GI50 (NCI-H23) was 13.9 µM (inactive), the GI50 (MOLT-4) was > 100 µM (inactive) and the GI50 (Malme-3M) was 19.1 µM (inactive). The GI50 (NCI-H522) was 14 µM (inactive), the GI50 (PC-3) was 21.7 µM (inactive) and the GI50 (NCI-H226) was 13.9 µM (inactive). The GI50 (TK-10) was 27.9 µM (inactive), the GI50 (HCT-116) was 12.3 µM (inactive) and the GI50 (HOP-92) was 21.7 µM (inactive). For the same compound, the GI50 (RXF 393) was 23 µM (inactive), the GI50 (MDA-MB-435) was 17.3 µM (inactive) and the GI50 (K562) was 0.474 µM (active). For the same compound, the GI50 (NCI/ADR-RES) was 19.3 µM (inactive), the GI50 (OVCAR-3) was 15.9 µM (inactive) and the GI50 (NCI-H460) was 23 µM (inactive). For the same compound, the GI50 (SN12C) was 51.8 µM (inactive), the GI50 (HCC 2998) was 1.27 µM (inactive) and the GI50 (MCF7) was 5.07 µM (inactive). The GI50 (HL-60) was > 100 µM (inactive), the GI50 (T47D) was 2.58 µM (inactive) and the GI50 (SK-MEL-2) was 11.2 µM (inactive). For the same compound, the GI50 (OVCAR-8) was 12.1 µM (inactive) and the GI50 (MDA-MB-231) was 19.3 µM (inactive).

`Cn1c(=O)c2c(nc3n(Cc4ccccc4)c(=O)c(NCCBr)cn23)n(C)c1=O` was tested, and the GI50 (CCRF-CEM) was 45.5 µM (inactive), the GI50 (SK-MEL-5) was 26.2 µM (inactive) and the GI50 (SF-268) was 25.8 µM (inactive). For the same compound, the GI50 (OVCAR-5) was 28.4 µM (inactive), the GI50 (SK-MEL-28) was 53.5 µM (inactive) and the GI50 (786-0) was 19.3 µM (inactive). For the same compound, the GI50 (KM12) was 63.5 µM (inactive), the GI50 (DU-145) was 27.8 µM (inactive) and the GI50 (SF-295) was 21.9 µM (inactive). For the same compound, the GI50 (SR) was 6.43 µM (inactive), the GI50 (HCT-15) was 34.8 µM and the GI50 (UO-31) was 13 µM (inactive). For the same compound, the GI50 (U-251) was 30.4 µM (inactive), the GI50 (CAKI-1) was 18.5 µM (inactive) and the GI50 (ACHN) was 15.4 µM (inactive). The GI50 (EKVX) was 18.5 µM (inactive), the GI50 (A549) was 29.6 µM (inactive) and the GI50 (SK-OV-3) was 25.3 µM (inactive). The GI50 (HT-29) was 41.2 µM (inactive), the GI50 (UACC-62) was 26.5 µM (inactive) and the GI50 (A498) was 34.9 µM (inactive). The GI50 (SNB-19) was 30.4 µM (inactive), the GI50 (BT-549) was 28.4 µM (inactive) and the GI50 (MDA-N) was 57.3 µM (inactive). The GI50 (UACC-257) was 25.7 µM (inactive), the GI50 (HOP-62) was 18.8 µM (inactive) and the GI50 (OVCAR-4) was 16.3 µM (inactive). The GI50 (IGROV-1) was 33 µM (inactive), the GI50 (RPMI-8226) was 23.8 µM (inactive) and the GI50 (COLO 205) was 49.1 µM (inactive). For the same compound, the GI50 (Hs-578T) was 29 µM (inactive), the GI50 (M14) was 33.1 µM (inactive) and the GI50 (NCI-H23) was 40.4 µM (inactive). The GI50 (MOLT-4) was 45.6 µM (inactive), the GI50 (SW-620) was 90.6 µM (inactive) and the GI50 (NCI-H522) was 22.2 µM (inactive). For the same compound, the GI50 (PC-3) was 20.1 µM (inactive), the GI50 (NCI-H226) was 19.9 µM (inactive) and the GI50 (TK-10) was 16.3 µM (inactive). For the same compound, the GI50 (HCT-116) was 28.8 µM (inactive), the GI50 (HOP-92) was 12 µM (inactive) and the GI50 (RXF 393) was 14.9 µM (inactive). The GI50 (MDA-MB-435) was 49.5 µM (inactive), the GI50 (LOX IMVI) was 28.4 µM (inactive) and the GI50 (K562) was 46 µM (inactive). The GI50 (NCI/ADR-RES) was 21.8 µM (inactive), the GI50 (OVCAR-3) was 19.1 µM (inactive) and the GI50 (NCI-H460) was 26.9 µM (inactive). For the same compound, the GI50 (SN12C) was 32.6 µM (inactive), the GI50 (HCC 2998) was 16.1 µM (inactive) and the GI50 (MCF7) was 24.4 µM (inactive). For the same compound, the GI50 (HL-60) was 38.8 µM (inactive), the GI50 (T47D) was 21.1 µM (inactive) and the GI50 (SNB-75) was 20 µM (inactive). For the same compound, the GI50 (SK-MEL-2) was 17.2 µM (inactive), the GI50 (OVCAR-8) was 14.7 µM (inactive) and the GI50 (MDA-MB-231) was 26.5 µM (inactive).

From ChEMBL document CHEMBL1201862, “PubChem BioAssay data set” (2004)
